The record followed here is ChEMBL document CHEMBL4706707, “Discovery of novel HBV capsid assembly modulators by structure-based virtual screening and bioassays” (Bioorg Med Chem, 2021).

Data set [1] concerns Hepatitis B virus. The experiment in a line: Antiviral activity against HBV infected in human HepG2.2.15 cells assessed as inhibition of viral growth measured by reduction in DNA level at 20 uM compound addition at every 3 days for 7 days by qPCR analysis relative to control. The conditions noted are these: HepG2.2.15, 168 h, time 7 day. The class given is functional. In general terms: Quantitative PCR measures a nucleic acid by following its amplification.

Data set [2] has as its system Hepatitis B virus. The experiment in a line: Antiviral activity against HBV infected in human HepG2.2.15 cells assessed as inhibition of viral growth measured by reduction in DNA level compound addition at every 3 days for 7 days by qPCR analysis. The format is functional, organism-based.
A short description of data set [3]: Cytotoxicity against human HepG2.2.15 cells assessed as reduction in cell viability compound addition at every 3 days for 7 days by MTT assay. The conditions noted are these: time 7 day. The class given is cell-based, HepG2 2.2.15.
Data set [4] deals with HEK293T. The experiment in a line: Inhibition of HBV VFP-fused HBV-VN (N1 to 154 residue)/ VFP-fused HBV-VC (C155 to 239 residue) capsid protein assembly in 293T cells assessed as mean flouroscent intensity sat 50 uM by BIFC assay. The class given is cell-based. To be noted: Hepatitis B virus.

SMILES strings stand for the structures.

A word on the inhibition: it is the drop in the measured response relative to a control, in per cent. In the case of `O=C(Nc1c(C(=O)N2CCCCCC2)cnn1-c1ccccc1)c1cccc(F)c1`, the inhibition at 20 µM in data set [1] was determined as 13.5%. For orientation: EC50 means the concentration that produces a half-maximal response. For orientation: CC50 means the concentration at which the toxic effect on the cells reaches its halfway point. As to `O=C(c1cc(-c2ccsc2Cl)nc2ccccc12)N1CCN(C/C=C/c2ccccc2)CC1`, the EC50 in data set [2] stood at 11.9 µM. The CC50 at 168 h in data set [3] is more than 20 µM. In the case of `COc1cc(OC)c(C(=O)Nc2cccc(S(=O)(=O)N3CCCC3)c2)cc1OC`, the inhibition at 20 µM in data set [1] was determined as 2.32%. As for `CCOc1cccc(-c2cc(C(=O)N3CCC(Cc4ccccc4)CC3)c3ccccc3n2)c1`, the EC50 in data set [2] came to 9.8 µM. Besides, in data set [3], the CC50 at 168 h was more than 20 µM.

As to `Cc1ccc(-c2cc(C(=O)N3CCC(Cc4ccccc4)CC3)c3ccccc3n2)cc1`, the EC50 in data set [2] came to 11.7 µM. In addition, the CC50 at 168 h in data set [3] was more than 20 µM. In the case of `O=C(c1cc(-c2ccccc2)nc2ccccc12)N1CCC(Cc2ccccc2)CC1`, in data set [2], the EC50 worked out at 8.7 µM. In addition, the CC50 at 168 h in data set [3] is more than 20 µM.

With `O=C(NCc1ccc(Cl)cc1)c1cc(-c2ccccc2)nc2ccccc12`, in data set [2], the EC50 was 15.7 µM. In data set [3], the CC50 at 168 h was more than 20 µM. On the same counts, the results for `O=C(c1cc(-c2ccsc2Cl)nc2ccccc12)N1CCN(Cc2ccccc2)CC1` are 8.3 µM and more than 20 µM.

Consider `O=C(c1cc(-c2ccsc2Cl)nc2ccccc12)N1CCC(Cc2ccccc2)CC1`, for which the EC50 in data set [2] stood at 6.7 µM. Moreover, the CC50 at 168 h in data set [3] is more than 20 µM. On to `Cc1ccc(-c2cc(C(=O)N3CCN(C/C=C/c4ccccc4)CC3)c3ccccc3n2)cc1C`, for which the inhibition at 20 µM in data set [1] is 72.5%. For the same compound, the EC50 in data set [2] was 5.6 µM. In addition, the CC50 at 168 h in data set [3] is more than 20 µM. For `Cn1c(=O)[nH]c(=O)c2c1nc(SCc1ccc(Cl)cc1)n2CCCc1ccccc1`, the inhibition at 20 µM in data set [1] is 64.8%. For `COc1ccc(-c2cc(C(=O)OCc3ccccc3)c3ccccc3n2)cc1`, in data set [2], the EC50 was more than 20 µM. Moreover, the CC50 at 168 h in data set [3] was more than 20 µM. With `CCN(C(=O)Cn1c([C@@H]2CC(=O)N(c3ccccc3C)C2)nc2ccccc21)c1ccccc1`, in data set [1], the inhibition at 20 µM was -8.36%.

Consider `Cc1ccc(-c2cc(C(=O)N3CCN(Cc4ccccc4)CC3)c3ccccc3n2)cc1`, for which, in data set [2], the EC50 worked out at 14.5 µM. Further, in data set [3], the CC50 at 168 h was more than 20 µM. For `CC(C)Cc1ccc(-c2cc(C(=O)N3CCC(Cc4ccccc4)CC3)c3ccccc3n2)cc1`, in that order: more than 20 µM and more than 20 µM. Regarding `Cc1ccc(C(=O)COC(=O)c2ccccc2NC(=O)Cc2ccccc2)cc1`, in data set [1], the inhibition at 20 µM was found to be 45.9%. As for `O=C(OCc1ccc(Cl)cc1)c1cc(-c2ccccc2)nc2ccccc12`, in data set [2], the EC50 is more than 20 µM. Moreover, the CC50 at 168 h in data set [3] was more than 20 µM. Regarding `CCOc1cccc(-c2cc(C(=O)NCc3nnc(C(C)(C)CC)s3)c3ccccc3n2)c1`, the concentration for a half-maximal effect (EC50) in data set [2] was more than 20 µM. Also, the CC50 at 168 h in data set [3] is more than 20 µM. `O=C(Nc1cc(Cl)ccc1O)c1cccc(N2C(=O)c3ccccc3C2=O)c1`: in data set [1], the inhibition at 20 µM was determined as 8.12%. On the same count and under the same terms, next, `Cc1ccc(CN2C(=N)C(C(=O)NCc3cccnc3)=CC3C(=O)N4C=CC=CC4=NC32)cc1` (centres undefined): 54.5%. As for `Cc1cccc(-c2cc(C(=O)NCc3ccccn3)c3ccccc3n2)c1`, in data set [2], the EC50 is more than 20 µM. For the same compound, the CC50 at 168 h in data set [3] is more than 20 µM. For the compound `Cc1ccc(-c2n[nH]c(SCC(=O)N3c4ccccc4Sc4ccccc43)n2)cc1`, the inhibition at 20 µM in data set [1] was 48.7%. The same measure, in the same setting: next, `O=C(CCCCC(=O)Nc1ccccc1C(=O)Nc1cccc(Cl)c1)Nc1ccccc1C(=O)Nc1cccc(Cl)c1`: 30.1%; `N#CC1=C(N)N(c2nc[nH]n2)C2=C(C(=O)C[C@@H](c3ccccc3)C2)[C@H]1c1cccnc1`: 33%. Turning to `Cc1cccc(-c2cc(C(=O)N3CCC(Cc4ccccc4)CC3)c3ccccc3n2)c1`, the Flu intensity in data set [4] is 0.25. Also, the EC50 in data set [2] was determined as 1.8 µM. In addition, in data set [3], the 50% cytotoxic concentration (CC50) at 168 h was more than 20 µM.

On to `O=C(c1cc(-c2cccc(Br)c2)nc2ccccc12)N1CCC(Cc2ccccc2)CC1`, for which the EC50 in data set [2] is more than 20 µM. Besides, the CC50 at 168 h in data set [3] is more than 20 µM.

With `O=C(Nc1ccccc1N1CCN(C(=O)c2ccccc2)CC1)C(c1ccccc1)c1ccccc1`, in data set [1], the inhibition at 20 µM came out at 12.2%. Still for that read-out and setting: next, `O=C(Nc1ccccc1F)c1ccccc1C(=O)Nc1ccccc1F`: 38.5%.

As for `CCOC(=O)C1=C(CN2CCOCC2)NC(c2nccs2)=N[C@H]1c1ccc(F)cc1Br`, the Flu intensity in data set [4] worked out at 0.41. On to `COc1ccccc1N1CCN(C(=O)c2cc(-c3ccc(C)c(C)c3)nc3ccccc23)CC1`, for which the EC50 in data set [2] is 15.3 µM. Moreover, the CC50 at 168 h in data set [3] is more than 20 µM. As for `CS(=O)(=O)N1CCCc2cc(C(=O)Nc3ccccc3C(=O)NCc3ccccc3)ccc21`, the inhibition at 20 µM in data set [1] was found to be 36.6%. Still for that read-out and setting: next, `O=C(CN1C(=O)c2ccccc2C1=O)Nc1ccccc1C(=O)N(Cc1ccccc1)Cc1ccccc1`: 23.3%; `CCCc1nc2ccccc2n1Cc1nc2ccccc2n1CCO`: 8.1%. As to `Cc1ccc([C@H](C)NC(=O)c2cc(-c3cccc(C)c3)nc3ccccc23)cc1`, the EC50 in data set [2] is more than 20 µM. In data set [3], the CC50 at 168 h is more than 20 µM.
